# Patent US20230180804A1, “FLAVOR COMPOSITION, AND FOOD AND BEVERAGE” (TAKASAGO INTERNATIONAL CORPORATION, priority 2020, published 2023)
# How the values were obtained:
# [1] = Sensory evaluation of p-cresol odor masking in p-cresol-containing citrus-flavored confectionery (tablet); conditions: for p-Cresol Odor Intensity: tablet with 200 ppb p-cresol, average score of 6 panelists, scale 0-4; for concentration at which the compound masks the p-cresol odor and does not affect the citrus flavor, lower limit / concentration at which the compound masks the p-cresol odor and does not affect the citrus flavor, upper limit: citrus-flavored confectionery (tablet) with 200 ppb p-cresol
# Procedure: Lemon cold-pressed oil was added to the tablet having the composition presented in Table A at a concentration of 1 % by mass, and medium chain fatty acid triglycerides (MCT) was used to adjust p-cresol to a concentration of 0.1%, which was further added so as to reach 200 ppb in the citrus flavored confectionery. To this p-cresol-containing citrus-flavored confectionery, 1-oxacycloheptadecan-7-en-2-one was added at the concentrations presented in Table 12, and then tableting was performed to confirm the p-cresol odor intensity (masking effect) and the influence on the citrus flavor of each sample.
# Six skilled panelists were selected to perform the same sensory evaluation as in Example 1. The results are as in Table 12, presenting the average score of the evaluation results for each panelist.
# [2] = Sensory evaluation of p-cresol odor masking in p-cresol-containing citrus-flavored beverage; conditions: for p-Cresol Odor Intensity: beverage with 50 ppb p-cresol, average score of 7 panelists, scale 0-4; for concentration at which the compound masks the p-cresol odor and does not affect the citrus flavor, lower limit / concentration at which the compound masks the p-cresol odor and does not affect the citrus flavor, upper limit: citrus-flavored beverage with 50 ppb p-cresol
# Procedure: To 2 g of lemon flavor obtained by making lemon oil into an essence, purified water was added to adjust the total amount to 1000 ml. To this citrus-flavored beverage, p-cresol adjusted to a concentration of 1% by mass with 95% ethanol was added to 50 ppb in the citrus-flavored beverage. To this p-cresol-containing citrus-flavored beverage, 1-oxacycloheptadecan-7-en-2-one was added at the concentrations presented in Table 1 to confirm the p-cresol odor intensity (masking effect) and the influence on the citrus flavor of each sample.
# For the test, seven skilled panelists were selected to perform sensory evaluation. The p-cresol odor intensity of the p-cresol-containing citrus-flavored beverage without added l-oxacycloheptadecan-7-en-2-one was determined as “Rating: 4,” and the p-cresol odor intensity of the p-cresol-free citrus-flavored beverage was determined as “Rating: 0,” and the p-cresol odor intensity (masking effect) of each sample was relatively evaluated according to the following evaluation criteria.
# In addition, the influence of the citrus-flavored beverage on the citrus flavor was evaluated absolutely according to the following evaluation criteria for the presence or absence of off- flavor other than p-cresol odor and citrus flavor (Off-Flavor Intensity).
# The results are as in Table 1, presenting the average score of the evaluation results for each panelist.
# [3] = Sensory evaluation of p-cresol odor masking in p-cresol-containing grated raw ginger; conditions: for p-Cresol Odor Intensity: grated ginger with 600 ppb p-cresol, average score of 9 panelists, scale 0-4
# Procedure: To commercially available grated raw ginger, p-cresol adjusted to a concentration of 0.1% with 95% ethanol was added to a concentration of 600 ppb in the ginger. To this p-cresol-containing ginger, 1-oxacycloheptadecan-8-en-2-one was added at the concentrations presented in Table 16 to confirm the p-cresol odor intensity (masking effect) and the influence on the ginger flavor of each sample.
# Nine skilled panelists were selected to perform the same sensory evaluation as in Example 1. The results are as in Table 16, presenting the average score of the evaluation results for each panelist.
# [4] = Sensory evaluation of p-cresol odor masking in p-cresol-containing lemon dressing; conditions: lemon dressing with 500 ppb p-cresol; for p-Cresol Odor Intensity: average score of 9 panelists, scale 0-4
# Procedure: To a commercially available lemon dressing, p-cresol adjusted to a concentration of 0.1% with 95% ethanol was added to 500 ppb in the lemon dressing. To this p-cresol-containing lemon dressing, l-oxacycloheptadecan-8-en-2-one was added at the concentrations presented in Table 18 to confirm the p-cresol odor intensity (masking effect) and the influence on the citrus flavor of each sample.
# Nine skilled panelists were selected to perform the same sensory evaluation as in Example 1. The results are as in Table 18, presenting the average score of the evaluation results for each panelist.
# [5] = target: T1, olfactory receptor OR9Q2 (Homo sapiens, UniProt Q8NGE9); test: OR9Q2 response inhibitory effect for p-cresol, luciferase reporter gene assay; assay type: cell-based; conditions: p-cresol 100 µM mixed with various concentrations of compound; cells expressing OR9Q2; ratio of Fold Increase value (FIGS. 1 to 11)
# T1 construct: 20 N-terminal amino acid residues of bovine rhodopsin (Rho tag); expressed in transfected cells; host or cells: HEK293T
# T1 sequence (Q8NGE9 1-314): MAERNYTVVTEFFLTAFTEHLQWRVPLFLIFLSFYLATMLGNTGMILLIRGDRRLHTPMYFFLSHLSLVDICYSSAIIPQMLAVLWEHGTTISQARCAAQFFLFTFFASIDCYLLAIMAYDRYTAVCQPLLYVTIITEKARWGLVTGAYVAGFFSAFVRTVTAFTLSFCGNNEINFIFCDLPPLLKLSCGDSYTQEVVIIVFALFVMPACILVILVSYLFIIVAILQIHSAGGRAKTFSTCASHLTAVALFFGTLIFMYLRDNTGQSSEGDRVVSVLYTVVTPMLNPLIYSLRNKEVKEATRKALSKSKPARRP
# Procedure: The human olfactory receptor gene was obtained by cloning from Human Genomic DNA: Female (Promega) by PCR method based on the sequence information registered in GenBank. The 20 N-terminal amino acid residues of bovine rhodopsin were incorporated into the pME18S vector, and the obtained human olfactory receptor gene was incorporated downstream thereof to obtain a human olfactory receptor gene expression vector.
# In 10 µL of Opti-MEM I (gibco), 0.05 µg of human olfactory receptor gene expression vector, 0.01 µg of RTP1S vector, 0.01 µg firefly luciferase vector pGL4.29 (Promega) containing cAMP response element promoter, and 0.005 µg of Renilla luciferase vector pGL4.74 (Promega) containing thymidine kinase promoter were dissolved to prepare a gene solution (for one well). HEK293T cells were seeded at 100 µL each in a 96-well plate (Biocoat, Coming) at the number of cells reaching confluence after 24 hours, and a gene solution was added to each well by the lipofection method according to the usage of Lipofectamine 3000 to introduce genes into the cells, and the cells were cultured at 37° C. in a 5% carbon dioxide atmosphere for 24 hours.
# After removing the culture medium, the resultant was prepared with CD293 (gibco) medium ([…] added) so as to have a concentration for measuring the aroma substance to be tested, 50 µL of which was added each and stimulated for 3 hours, and then luciferase activity was measured according to the method of using the Dual-Luciferase Reporter Assay System (Promega). The response intensity of the olfactory receptor polypeptide was expressed as a Fold Increase value obtained by dividing the luciferase activity produced by stimulating the aroma substance by the luciferase activity produced in the test system containing no aroma substance.
# p-Cresol at 100 µM was mixed with various concentrations of 1-oxacycloheptadecan-7-en-2-one, 1-oxacycloheptadecan-8-en-2-one, isoambrettolide, pentalide, muscone, civetone, 8-2-decenolactone, cinnamic aldehyde, […], sclareolide, and ethyl maltol, and receptor responses were measured in cells expressing OR9Q2. The ratio of the Fold Increase value in the test in which each compound was mixed was calculated, where the Fold Increase value in the test in none of these compounds was mixed was set to 100. FIGS. 1 to 11 present the results.
# [6] = grated raw ginger with 600 ppb p-cresol
Compound,p-Cresol Odor Intensity ([1]; 4 ppb added) [points],p-Cresol Odor Intensity ([1]; 40 ppb added) [points],p-Cresol Odor Intensity ([1]; 40 ppt added) [points],p-Cresol Odor Intensity ([1]; 400 ppb added) [points],p-Cresol Odor Intensity ([1]; 400 ppt added) [points],"concentration at which the compound masks the p-cresol odor and does not affect the citrus flavor, lower limit [1]","concentration at which the compound masks the p-cresol odor and does not affect the citrus flavor, upper limit [1] [ppb]",p-Cresol Odor Intensity ([2]; 0.01 ppt added) [points],p-Cresol Odor Intensity ([2]; 0.1 ppt added) [points],p-Cresol Odor Intensity ([2]; 1 ppb added) [points],p-Cresol Odor Intensity ([2]; 1 ppt added) [points],p-Cresol Odor Intensity ([2]; 10 ppb added) [points],p-Cresol Odor Intensity ([2]; 10 ppt added) [points],p-Cresol Odor Intensity ([2]; 100 ppb added) [points],p-Cresol Odor Intensity ([2]; 100 ppt added) [points],"concentration at which the compound masks the p-cresol odor and does not affect the citrus flavor, lower limit [2] [ppt]","concentration at which the compound masks the p-cresol odor and does not affect the citrus flavor, upper limit [2]",effect of suppressing the response of OR9Q2 to p-cresol [5],further results
"O=C1CCCCC=CCCCCCCCCCO1 [1-Oxacycloheptadecan-7-En-2-One, 1-oxacycloheptadecan-7-en-2-one]",2.5,2.0,3.2,1.3,2.7,≥ 400 ppt,≤ 400,3.7,2.7,1.3,2.4,0.9,2.0,0.7,1.7,≥ 0.1,≤ 1 ppb,,
"O=C1CCCCCC=CCCCCCCCCO1 [1-Oxacycloheptadecan-8-En-2-One, 1-oxacycloheptadecan-8-en-2-one]",2.5,1.8,3.3,1.7,3.2,≥ 4 ppb,≤ 400,3.6,2.9,1.1,2.6,0.7,1.9,0.4,1.4,≥ 0.1,≤ 1 ppb,,"p-Cresol Odor Intensity ([3]; 1 ppb added): 1.7 points; p-Cresol Odor Intensity ([3]; 1 ppt added): 3.2 points; p-Cresol Odor Intensity ([3]; 10 ppb added): 1.4 points; p-Cresol Odor Intensity ([3]; 10 ppt added): 2.4 points; p-Cresol Odor Intensity ([3]; 100 ppt added): 2.3 points; concentration at which the compound masks the p-cresol odor and does not affect the ginger flavor, lower limit [3, 6]: ≥ 10 ppt; concentration at which the compound masks the p-cresol odor and does not affect the ginger flavor, upper limit [3, 6]: ≤ 1 ppb; p-Cresol Odor Intensity ([4]; 1 ppb added): 1.1 points; p-Cresol Odor Intensity ([4]; 1 ppt added): 2.9 points; p-Cresol Odor Intensity ([4]; 10 ppb added): 1.0 points; p-Cresol Odor Intensity ([4]; 10 ppt added): 2.2 points; p-Cresol Odor Intensity ([4]; 100 ppt added): 1.6 points; concentration at which the compound masks the p-cresol odor and does not affect the citrus flavor, lower limit [4]: ≥ 1 ppt; concentration at which the compound masks the p-cresol odor and does not affect the citrus flavor, upper limit [4]: ≤ 10 ppb"
"O=C/C=C/c1ccccc1 [Cinnamic Aldehyde, cinnamic aldehyde]",,,,,,,,,,2.3,,2.0,3.9,2.0,2.7,≥ 100,≤ 10 ppm,suppressing the response of OR9Q2 to p-cresol in a concentration-dependent manner,p-Cresol Odor Intensity ([2]; 1 ppm added): 1.7 points; p-Cresol Odor Intensity ([2]; 10 ppm added): 0.9 points; p-Cresol Odor Intensity ([2]; 100 ppm added): 0.6 points
"O=C1CCCCCCC/C=C\CCCCCCC1 [Civetone, civetone]",,,,,,,,2.7,2.3,1.0,1.9,0.9,1.6,0.4,1.1,≥ 0.01,≤ 1 ppb,suppressing the response of OR9Q2 to p-cresol in a concentration-dependent manner,p-Cresol Odor Intensity ([2]; 0.001 ppt added): 3.7 points
ambrettolide,,,,,,,,,,,,,,,,,,suppressing the response of OR9Q2 to p-cresol in a concentration-dependent manner,
